Our source for the IC50 values is patent US20210253575A1, “PYRROLIDINE AMINE COMPOUNDS FOR THE TREATMENT OF AUTOIMMUNE DISEASE” (Hoffmann-La Roche Inc., priority 2018, published 2021).

The assay concerns the target T1, human TLR9 (Homo sapiens, UniProt Q9NR96).
T1 sequence (Q9NR96 26-1032): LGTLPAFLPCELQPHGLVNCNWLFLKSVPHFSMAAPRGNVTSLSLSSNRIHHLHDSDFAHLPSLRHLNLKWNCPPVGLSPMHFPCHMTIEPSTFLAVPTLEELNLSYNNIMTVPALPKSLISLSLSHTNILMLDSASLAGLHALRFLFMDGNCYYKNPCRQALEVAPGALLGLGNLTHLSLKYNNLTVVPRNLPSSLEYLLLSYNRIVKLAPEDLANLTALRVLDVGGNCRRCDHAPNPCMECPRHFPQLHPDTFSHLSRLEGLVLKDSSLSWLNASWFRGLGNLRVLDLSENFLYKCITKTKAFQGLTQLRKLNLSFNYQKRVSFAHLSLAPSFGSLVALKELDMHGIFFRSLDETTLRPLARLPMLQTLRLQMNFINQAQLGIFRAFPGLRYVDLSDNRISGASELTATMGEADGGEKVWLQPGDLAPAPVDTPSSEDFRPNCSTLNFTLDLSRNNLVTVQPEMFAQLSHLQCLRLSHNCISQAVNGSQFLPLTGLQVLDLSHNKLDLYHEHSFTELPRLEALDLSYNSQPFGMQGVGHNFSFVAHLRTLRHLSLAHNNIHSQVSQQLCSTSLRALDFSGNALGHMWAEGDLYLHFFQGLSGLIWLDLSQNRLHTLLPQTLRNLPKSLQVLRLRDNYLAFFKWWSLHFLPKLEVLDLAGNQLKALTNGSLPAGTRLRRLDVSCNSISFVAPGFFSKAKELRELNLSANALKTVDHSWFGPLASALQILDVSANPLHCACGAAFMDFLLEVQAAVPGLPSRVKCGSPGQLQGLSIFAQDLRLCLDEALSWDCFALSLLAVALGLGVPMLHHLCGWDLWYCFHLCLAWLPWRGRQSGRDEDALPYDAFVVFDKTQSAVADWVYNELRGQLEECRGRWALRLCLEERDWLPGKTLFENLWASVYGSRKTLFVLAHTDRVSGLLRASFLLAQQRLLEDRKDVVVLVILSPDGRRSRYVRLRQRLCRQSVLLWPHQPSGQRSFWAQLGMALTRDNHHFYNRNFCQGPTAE
Kind of assay: HEK293-Blue-hTLR-9 cells assay (SEAP reporter, ODN2006 stimulation). In kind it is cell-based. The note with it: HEK293-Blue-hTLR9 cells, ODN2006 ligand, 20 hrs incubation. As for the experimental part: The following tests were carried out in order to determine the activity of the compounds of formula (I) in HEK293-Blue-hTLR-7/8/9 cells assay.
HEK293-Blue-hTLR-9 Cells Assay:
A stable HEK293-Blue-hTLR-9 cell line was purchased from InvivoGen (Cat. #: hkb-htlr9, San Diego, Calif., USA). These cells were originally designed for studying the stimulation of human TLR9 by monitoring the activation of NF-κB. A SEAP (secreted embryonic alkaline phosphatase) reporter gene was placed under the control of the IFN-β minimal promoter fused to five NF-κB and AP-1-binding sites. The SEAP was induced by activating NF-κB and AP-1 via stimulating HEK-Blue hTLR9 cells with TLR9 ligands. Therefore the reporter expression was declined by TLR9 antagonist under the stimulation of a ligand, such as ODN2006 (Cat. #: tlrl-2006-1, Invivogen, San Diego, Calif., USA), for incubation of 20 hrs. The cell culture supernatant SEAP reporter activity was determined using QUANTI-Blue™ kit (Cat. #: rep-qb1, Invivogen, San Diego, Calif., USA) at a wavelength of 640 nm, a detection medium that turns purple or blue in the presence of alkaline phosphatase.
HEK293-Blue-hTLR9 cells were incubated at a density of 250,000˜450,000 cells/mL in a volume of 170 μL in a 96-well plate in Dulbecco's Modified Eagle's medium (DMEM) containing 4.5 g/L glucose, 50 U/mL penicillin, […], […], 2 mM L-glutamine, 10% (v/v) heat-inactivated fetal bovine serum with addition of 20 μL test compound in a serial dilution in the presence of final DMSO at 1% and 10 μL of 20 uM ODN2006 in above DMEM, perform incubation under 37° C. in a CO2incubator for 20 hrs. Then 20 μL of the superatant from each well was incubated with 180 μL Quanti-blue substrate solution at 37° C. for 2 hrs and the absorbance was read at 620˜655 nm using a spectrophotometer. The signalling pathway that TLR9 activation leads to downstream NF-κB activation has been widely accepted, and therefore similar reporter assay was modified for evaluating TLR9 antagonist.
As for `N#Cc1ccc(N2CC(CN3CCC4(CC3)CNCCO4)C3(CC3)C2)c2nccnc12` (stereo not shown) [Example 49, 8-[7-(1-Oxa-4,9-diazaspiro[5.5]undecan-9-ylmethyl)-5-azaspiro[2.4]heptan-5-yl]quinoxaline-5-carbonitrile], the half-inhibitory concentration (IC50) (as a rule, the point on the concentration scale where inhibition reaches its midpoint) turned out to be 0.087 µM.

Compound `N#Cc1ccc(N2CC(CN3CC4CCNCC43)C3(CC3)C2)c2nccnc12` (stereo not shown) [Example 50, 8-[7-(3,8-Diazabicyclo[4.2.0]octan-8-ylmethyl)-5-azaspiro[2.4]heptan-5-yl]quinoxaline-5-carbonitrile] gave a half-inhibitory concentration (IC50) of 0.259 µM. Against the preceding compound, the IC50 is about 3-fold higher.

For the compound `N#Cc1ccc(N2C[C@H](CN3CCC(N)CC3)[C@@H](C(F)(F)F)C2)c2nccnc12` [Example 51, 8-[(3S,4R)-3-[(4-amino-1-piperidyl)methyl]-4-(trifluoromethyl)pyrrolidin-1-yl]quinoxaline-5-carbonitrile], the concentration for half-maximal inhibition (IC50) stood at 0.359 µM. The IC50 values of the last two compounds are within 1.5-fold of each other.

Regarding `N#Cc1ccc(N2C[C@H](CN3CCC(N4CCNCC4)CC3)[C@@H](C(F)(F)F)C2)c2cccnc12` [Example 52, 5-[(3S,4R)-3-[(4-piperazin-1-yl-1-piperidyl)methyl]-4-(trifluoromethyl)pyrrolidin-1-yl]quinoline-8-carbonitrile], inhibition was half-maximal at 0.208 µM (IC50).

Consider `N#Cc1ccc(N2C[C@H](CN3CC4(CC(N)C4)C3)[C@@H](C(F)(F)F)C2)c2cccnc12` [Example 53, 5-[(3S,4R)-3-[(6-Amino-2-azaspiro[3.3]heptan-2-yl)methyl]-4-(trifluoromethyl)pyrrolidin-1-yl]quinoline-8-carbonitrile], for which the IC50 was determined as 0.219 µM.

`N#Cc1ccc(N2C[C@H](CN3CCC4(CCNC4)CC3)[C@@H](C(F)(F)F)C2)c2cccnc12` [Example 54, 5-[(3S,4R)-3-(2,8-Diazaspiro[4.5]decan-8-ylmethyl)-4-(trifluoromethyl)pyrrolidin-1-yl]quinoline-8-carbonitrile] gave an IC50 of 0.152 µM.

For the compound `N#Cc1ccc(N2C[C@H](CN3CCC4(CCCNC4)CC3)[C@@H](C(F)(F)F)C2)c2cccnc12` [Example 55, 5-[(3S,4R)-3-(2,9-Diazaspiro[5.5]undecan-9-ylmethyl)-4-(trifluoromethyl)pyrrolidin-1-yl]quinoline-8-carbonitrile], the 50% inhibitory concentration (IC50) turned out to be 0.173 µM.

On to `N#Cc1ccc(N2C[C@H](CN3CCC4(CCNCC4)C3)[C@@H](C(F)(F)F)C2)c2cccnc12` [Example 56, 5-[(3S,4R)-3-(2,8-Diazaspiro[4.5]decan-2-ylmethyl)-4-(trifluoromethyl)pyrrolidin-1-yl]quinoline-8-carbonitrile], for which the IC50 came out at 0.159 µM.

For the compound `N#Cc1ccc(N2C[C@H](CN3CCCC4(CCNCC4)C3)[C@@H](C(F)(F)F)C2)c2cccnc12` [Example 57, 5-[(3S,4R)-3-(2,9-Diazaspiro[5.5]undecan-2-ylmethyl)-4-(trifluoromethyl)pyrrolidin-1-yl]quinoline-8-carbonitrile], the IC50 is 0.331 µM. Compared with the last compound, the IC50 is about 2.1-fold higher.

Take `N#Cc1ccc(N2CC(CN3CCC(N4CCOCC4)CC3)C3(CC3)C2)c2nccnc12` (stereo not shown) [Example 58, 8-[7-[(4-Morpholino-1-piperidyl)methyl]-5-azaspiro[2.4]heptan-5-yl]quinoxaline-5-carbonitrile]: the midpoint of inhibition, the IC50, lay at 0.605 µM. This IC50 is about 1.8-fold higher than that of the compound before.

Compound `N#Cc1ccc(N2C[C@H](CN3CCNCC3)[C@@H](C(F)(F)F)C2)c2nccnc12` [Example 59, 8-[(3S,4R)-3-(Piperazin-1-ylmethyl)-4-(trifluoromethyl)pyrrolidin-1-yl]quinoxaline-5-carbonitrile] came in with an IC50 of 2.7 µM.

As for `N#Cc1ccc(N2C[C@H](CN3CCC(N4CCCC4)CC3)[C@@H](C(F)(F)F)C2)c2nccnc12` [Example 60, 8-[(3S,4R)-3-[(4-Pyrrolidin-1-yl-1-piperidyl)methyl]-4-(trifluoromethyl)pyrrolidin-1-yl]quinoxaline-5-carbonitrile], the IC50 was 0.509 µM.

In the case of `N#Cc1ccc(N2C[C@H](CN3CCC(N4CCCCC4)CC3)[C@@H](C(F)(F)F)C2)c2nccnc12` [Example 61, 8-[(3S,4R)-3-[[4-(1-Piperidyl)-1-piperidyl]methyl]-4-(trifluoromethyl)pyrrolidin-1-yl]quinoxaline-5-carbonitrile], it took 0.438 µM to reach half-maximal inhibition (IC50).
